Laboratory results published in PMC9944328 (Nature Communications, 2023).

Tests used:
SSTR2 mutants [1] = biological target: SSTR2 mutants (Homo sapiens, UniProt P30874, R140A)
Description: (§1) Wild-type or mutant SSTR2, β-arrestin 1-Nluc and FYVE-mVenus were co-transfected in HEK293 cells at a ratio of 1:0.5:4 on six-well plates. The next day, the transfected cells were plated on white 96-well and incubated overnight, and then cells were incubated with 90 µL HBSS containing 20 mM HEPES and coelenterazine h (5 µM) at room temperature for 40 min. After incubation, ligand was added and the signal was measured using the Synergy H1 microplate reader (BioTek) to determine a BRET ratio.

SSTR2 mutants [2] = biological target: SSTR2 mutants (Homo sapiens, UniProt P30874, Y312A)
Description: as §1
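Also: Read-out is the BRET ratio between Nluc-fused β-arrestin 1 and the early endosome marker FYVE-mVenus, measured after ligand addition with coelenterazine h as substrate.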

Sequence of SSTR2 mutants (Homo sapiens, UniProt P30874, R140A) (P30874 whole entry R140A): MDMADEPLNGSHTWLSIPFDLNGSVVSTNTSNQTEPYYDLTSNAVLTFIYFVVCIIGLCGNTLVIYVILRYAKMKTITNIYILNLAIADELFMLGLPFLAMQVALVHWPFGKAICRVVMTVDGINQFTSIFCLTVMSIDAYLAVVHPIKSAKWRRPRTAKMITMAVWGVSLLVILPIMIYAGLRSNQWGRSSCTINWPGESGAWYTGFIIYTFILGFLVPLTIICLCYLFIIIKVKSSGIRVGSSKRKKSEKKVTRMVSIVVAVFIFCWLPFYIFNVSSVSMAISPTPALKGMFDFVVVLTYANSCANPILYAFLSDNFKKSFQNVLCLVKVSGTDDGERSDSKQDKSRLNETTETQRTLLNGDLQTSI
Sequence of SSTR2 mutants (Homo sapiens, UniProt P30874, Y312A) (P30874 whole entry Y312A, the tested form may be a part): as the sequence (P30874 whole entry R140A) above, with A140R, Y312A counted along it

SMILES | Emax (SSTR2 mutants [1]) | Emax (SSTR2 mutants [2])
N#Cc1cccc(-c2ccc3ncc(-c4cc(F)cc(F)c4)c(N4CCC(N)CC4)c3c2)c1O [paltusotine] | 50.9 ± 2.01% | 41.3 ± 3%
C[C@@H](O)[C@@H]1NC(=O)[C@H](CCCCN)NC(=O)[C@@H](Cc2c[nH]c3ccccc23)NC(=O)[C@H](Cc2ccccc2)NC(=O)[C@@H](NC(=O)[C@H](N)Cc2ccccc2)CSSC[C@@H](C(=O)N[C@H](CO)[C@@H](C)O)NC1=O [octreotide] | 48.4 ± 0.93% | 45.6 ± 1.21%
